Measurements: patent US20070027145A1, “Quinazoline derivatives as inhibitors of vegf receptor tyrosine kinases” (priority 2003, published 2007)
pIC50: −log10 of the molar value.

How the values were obtained:
KDR = biological target: T1, KDR (Homo sapiens, UniProt P35968); assay: In vitro receptor tyrosine kinase inhibition test (a), KDR; format: biochemical; conditions: read-out: IC50 in the enzyme assay (a) against KDR
T1 construct: made in house; host or cells: insect cells (e.g. Spodoptera frugiperda Sf21), recombinant baculovirus
T1 sequence (P35968 786-1356 limits assumed): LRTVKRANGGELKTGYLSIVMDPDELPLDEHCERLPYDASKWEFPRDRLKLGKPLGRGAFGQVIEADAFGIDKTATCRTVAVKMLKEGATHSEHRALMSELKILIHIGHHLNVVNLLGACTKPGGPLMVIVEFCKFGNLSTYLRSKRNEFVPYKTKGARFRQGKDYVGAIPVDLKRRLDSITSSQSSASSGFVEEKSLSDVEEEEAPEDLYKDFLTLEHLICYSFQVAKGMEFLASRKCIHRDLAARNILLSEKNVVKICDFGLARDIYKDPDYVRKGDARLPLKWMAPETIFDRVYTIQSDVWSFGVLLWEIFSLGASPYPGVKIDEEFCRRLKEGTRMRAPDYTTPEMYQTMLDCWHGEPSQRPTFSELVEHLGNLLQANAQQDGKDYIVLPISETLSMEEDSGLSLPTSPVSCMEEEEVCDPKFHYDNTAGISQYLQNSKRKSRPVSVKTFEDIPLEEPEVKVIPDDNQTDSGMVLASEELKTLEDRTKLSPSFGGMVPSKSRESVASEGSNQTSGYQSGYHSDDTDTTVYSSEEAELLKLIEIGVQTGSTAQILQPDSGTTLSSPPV
From the text: (§1) This assay determines the ability of a test compound to inhibit tyrosine kinase activity. DNA encoding VEGF or epidermal growth factor (EGF) receptor cytoplasmic domains may be obtained by total gene synthesis (Edwards M, International Biotechnology Lab 5(3), 19-25, 1987) or by cloning. These may then be expressed in a suitable expression system to obtain polypeptide with tyrosine kinase activity. […] In the case of the VEGF receptor Flt (Genbank accession number X51602), a 1.7 kb DNA fragment encoding most of the cytoplasmic domain, commencing with methionine 783 and including the termination codon, described by Shibuya et al (Oncogene, 1990, 5: 519-524), was isolated from cDNA and cloned into a baculoviris transplacement vector (for example pAcYM1 (see The Baculovirus Expression System: A Laboratory Guide, L. A. King and R. D. Possee, Chapman and Hall, 1992) or pAc360 or pBlueBacHis (available from Invitrogen Corporation)). This recombinant construct was co-transfected into insect cells (for example Spodoptera frugiperda 21(Sf21)) with viral DNA (eg Pharmingen BaculoGold) to prepare recombinant baculovirus. […]

Flt-1 = biological target: T2, Flt-1 (Homo sapiens, UniProt P17948); assay: In vitro receptor tyrosine kinase inhibition test (a), Flt-1; format: biochemical; conditions: read-out: IC50 in the enzyme assay (a) against Flt-1
T2 construct: encoding most of the cytoplasmic domain, commencing with methionine 783 and including the termination codon; made in house; host or cells: Sf21 insect cells, recombinant baculovirus
T2 sequence (P17948 781-1338 limits assumed): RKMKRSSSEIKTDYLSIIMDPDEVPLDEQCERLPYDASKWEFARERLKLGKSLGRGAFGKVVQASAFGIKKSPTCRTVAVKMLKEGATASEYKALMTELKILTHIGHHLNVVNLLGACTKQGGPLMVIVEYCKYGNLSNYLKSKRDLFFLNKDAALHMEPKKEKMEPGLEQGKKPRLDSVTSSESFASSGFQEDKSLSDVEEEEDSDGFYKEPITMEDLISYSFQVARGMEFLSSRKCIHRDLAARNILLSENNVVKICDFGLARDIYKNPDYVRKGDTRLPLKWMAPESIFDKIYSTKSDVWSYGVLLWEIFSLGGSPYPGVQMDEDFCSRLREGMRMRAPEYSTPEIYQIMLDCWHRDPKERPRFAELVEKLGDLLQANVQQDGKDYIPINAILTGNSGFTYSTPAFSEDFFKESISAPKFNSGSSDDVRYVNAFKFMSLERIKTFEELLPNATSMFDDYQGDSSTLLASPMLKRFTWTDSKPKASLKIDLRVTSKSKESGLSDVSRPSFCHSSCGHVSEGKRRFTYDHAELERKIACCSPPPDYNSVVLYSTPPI
From the text: as §1

EGFR = biological target: T3, EGFR (Homo sapiens, UniProt P00533); assay: In vitro receptor tyrosine kinase inhibition test (a), EGFR; format: biochemical; conditions: read-out: IC50 in the enzyme assay (a) against EGFR
T3 construct: made in house; host or cells: insect cells (e.g. Spodoptera frugiperda Sf21), recombinant baculovirus
T3 sequence (P00533 669-1210 limits assumed): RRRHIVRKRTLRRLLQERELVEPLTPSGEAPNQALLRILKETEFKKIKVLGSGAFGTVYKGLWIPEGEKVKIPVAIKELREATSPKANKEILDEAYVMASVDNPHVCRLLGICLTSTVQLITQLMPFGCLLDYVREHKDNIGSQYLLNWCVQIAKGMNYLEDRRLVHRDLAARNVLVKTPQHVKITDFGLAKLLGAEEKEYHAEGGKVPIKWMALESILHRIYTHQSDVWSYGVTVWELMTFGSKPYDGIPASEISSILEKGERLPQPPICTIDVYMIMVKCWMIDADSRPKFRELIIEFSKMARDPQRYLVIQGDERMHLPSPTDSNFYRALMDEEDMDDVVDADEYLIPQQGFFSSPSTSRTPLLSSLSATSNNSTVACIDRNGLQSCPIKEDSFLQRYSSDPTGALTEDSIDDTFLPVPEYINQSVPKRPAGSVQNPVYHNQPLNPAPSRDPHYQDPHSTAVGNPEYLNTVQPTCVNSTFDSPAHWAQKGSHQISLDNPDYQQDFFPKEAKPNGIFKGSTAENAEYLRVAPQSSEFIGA
From the text: as §1

[1] = test system: VEGF-stimulated proliferation of human umbilical vein endothelial cells (HUVEC); assay: In vitro HUVEC proliferation assay (b), VEGF-stimulated; format: cell-based; conditions: VEGF 3 ng/ml, read-out: IC50 in the HUVEC assay (b) with respect to VEGF
Method: (§2) This assay determines the ability of a test compound to inhibit the growth factor-stimulated proliferation of human umbilical vein endothelial cells (HUVEC).
(§3) HUVEC cells were isolated in MCDB 131 (Gibco BRL)+7.5% v/v fetal calf serum (PCS) and were plated out (at passage 2 to 8), in MCDB 131+2% v/v FCS+3 μg/ml heparin+1 µg/ml hydrocortisone, at a concentration of 1000 cells/well in 96 well plates. After a minimum of 4 hours they were dosed with the appropriate growth factor (i.e. VEGF 3 ng/ml, EGF 3 ng/ml or b-FGF 0.3 ng/ml) and compound. The cultures were then incubated for 4 days at 37° C. with 7.5% carbon dioxide. On day 4 the cultures were pulsed with 1 μCi/well of tritiated-thymidine (Amersham product TRA 61) and incubated for 4 hours. The cells were harvested using a 96-well plate harvester (Tomtek) and then assayed for incorporation of tritium with a Beta plate counter. Incorporation of radioactivity into cells, expressed as cpm, was used to measure inhibition of growth factor-stimulated cell proliferation by compounds.

[2] = test system: EGF-stimulated proliferation of human umbilical vein endothelial cells (HUVEC); assay: In vitro HUVEC proliferation assay (b), EGF-stimulated; format: cell-based; conditions: EGF 3 ng/ml, read-out: IC50 in the HUVEC assay (b) with respect to EGF
Method: as §2, §3

[3] = biological target: T4, human ether-a-go-go-related-gene (hERG)-encoded potassium channel (Homo sapiens, UniProt Q12809); assay: hERG-encoded potassium channel inhibition test (d); format: cell-based; conditions: HEK cells, whole cell patch clamp, tail current
T4 construct: expressed in transfected cells; host or cells: Human embryonic kidney (HEK) cells under G418 selection
T4 sequence (Q12809 whole entry): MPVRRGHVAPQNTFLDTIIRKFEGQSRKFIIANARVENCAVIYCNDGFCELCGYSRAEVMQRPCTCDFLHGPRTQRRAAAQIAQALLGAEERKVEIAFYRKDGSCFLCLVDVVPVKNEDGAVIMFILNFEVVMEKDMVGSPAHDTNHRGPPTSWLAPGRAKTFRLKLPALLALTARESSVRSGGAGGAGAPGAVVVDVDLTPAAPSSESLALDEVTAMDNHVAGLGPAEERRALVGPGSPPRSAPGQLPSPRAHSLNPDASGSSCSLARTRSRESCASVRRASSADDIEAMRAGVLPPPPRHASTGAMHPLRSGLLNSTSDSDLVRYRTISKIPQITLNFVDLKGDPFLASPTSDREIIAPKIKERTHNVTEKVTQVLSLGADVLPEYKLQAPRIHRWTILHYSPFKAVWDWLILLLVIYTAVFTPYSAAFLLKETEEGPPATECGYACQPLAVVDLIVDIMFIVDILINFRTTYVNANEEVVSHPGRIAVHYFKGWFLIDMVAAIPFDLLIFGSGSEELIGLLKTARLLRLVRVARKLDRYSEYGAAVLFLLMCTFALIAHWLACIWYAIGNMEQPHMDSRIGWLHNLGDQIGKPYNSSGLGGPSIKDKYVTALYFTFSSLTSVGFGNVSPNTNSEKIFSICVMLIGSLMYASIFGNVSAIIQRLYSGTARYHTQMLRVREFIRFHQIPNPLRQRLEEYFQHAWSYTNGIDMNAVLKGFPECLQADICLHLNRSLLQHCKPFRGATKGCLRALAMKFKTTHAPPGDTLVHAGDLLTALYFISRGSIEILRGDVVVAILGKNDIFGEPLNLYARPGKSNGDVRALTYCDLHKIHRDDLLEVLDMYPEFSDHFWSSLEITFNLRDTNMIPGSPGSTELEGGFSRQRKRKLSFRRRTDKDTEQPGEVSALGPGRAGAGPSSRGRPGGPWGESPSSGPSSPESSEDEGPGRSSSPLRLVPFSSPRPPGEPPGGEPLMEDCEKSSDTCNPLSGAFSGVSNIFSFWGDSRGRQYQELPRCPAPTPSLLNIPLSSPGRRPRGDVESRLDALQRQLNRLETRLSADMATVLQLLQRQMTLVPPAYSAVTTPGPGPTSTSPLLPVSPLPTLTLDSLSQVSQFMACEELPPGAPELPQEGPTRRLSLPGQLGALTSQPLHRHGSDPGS
Method: This assay determines the ability of a test compound to inhibit the tail current flowing through the human ether-a-go-go-related-gene (hERG)-encoded potassium channel.
Human embryonic kidney (HEK) cells expressing the hERG-encoded channel were grown in Miniium Essential Medium Eagle (EMEM; Sigma-Aldrich catalogue number M2279), supplemented with 10% Foetal Calf Serum (Labtech Internation; product number 4-101-500), 10% M1 serum-free supplement (Egg Technologies; product number 70916) and 0.4 mg/ml Geneticin G418 (Sigma-Aldrich; catalogue number G7034). […]
For each cell recorded, a glass coverslp containing the cells were placed at the bottom of a Perspex chamber containging bath solution (see below) at ambient temperature (˜20° C.). […]
The cell was recorded in the whole cell configutation of the patch clamp technique. […]
The amplitude of the hERG-encoded potassium channel tail current following the step from +40 mV to −50 mV was recorded on-line by Clampex software (Axon Instruments). […]
The effect of each concentration of test compound was quantified by expressing the tail current amplitude in the presence of a given concentration of test compound as a percentage of that in the presence of vehicle.
Test compound potency (IC50) was determined by fitting the percentage inhibition values making up the concentration-effect to a four parameter Hill equation using a standard data-fitting package.

Question: Which results are given for COc1cc2c(Nc3ccc(Br)cc3F)ncnc2cc1OCC1CCN(C(=O)CN(C)C)CC1 [Example 1, 4-(4-bromo-2-fluoroanilino)-7-({1-[(N,N-dimethylamino)acetyl]piperidin-4-yl}methoxy)-6-methoxyquinazoline]?
Answer: pIC50 (KDR): 7.54; pIC50 (Flt-1): 6.31; pIC50 (EGFR): 7.14; pIC50 [1]: 7.94; pIC50 [2]: 7.00; pIC50 [3]: 5.82
